# In article PMC4592935, “Application of Molecular Modeling to Development of New Factor Xa Inhibitors” (BioMed Research International, 2015):
# Experiments:
# Human factor Xa = biological target: T1, Human factor Xa (Homo sapiens, UniProt P00742); experiment: Inhibition of factor Xa hydrolysis of chromogenic substrate S2765 in buffer; type: biochemical; settings: for inhibitory activity against factor Xa (in words): in vitro, chromogenic substrate hydrolysis; for Inhibition of hydrolysis rate specific to the factor Xa substrate in the buffer system IC50 / IC50: substrate S2765 250 μM, Xa 0.5 nM, 20 mM HEPES pH 8.0; for IC50: read-out: Inhibition of hydrolysis rate specific to the factor Xa substrate in the buffer system IC50
# T1 construct: It consists of light (139 residues) and heavy (303 residues) chains linked by a disulfide bridge; purchased Hematologic Technologies Inc. (USA)
# T1 sequence (P00742 235-488 limits assumed): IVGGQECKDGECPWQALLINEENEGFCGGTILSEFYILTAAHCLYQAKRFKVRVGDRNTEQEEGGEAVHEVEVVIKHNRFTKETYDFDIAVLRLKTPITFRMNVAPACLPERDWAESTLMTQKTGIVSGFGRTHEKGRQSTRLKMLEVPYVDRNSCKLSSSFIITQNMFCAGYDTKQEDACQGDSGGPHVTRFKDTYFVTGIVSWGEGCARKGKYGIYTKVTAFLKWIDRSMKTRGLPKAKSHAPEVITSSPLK
# T1 sequence (P00742 41-179 partner limits assumed): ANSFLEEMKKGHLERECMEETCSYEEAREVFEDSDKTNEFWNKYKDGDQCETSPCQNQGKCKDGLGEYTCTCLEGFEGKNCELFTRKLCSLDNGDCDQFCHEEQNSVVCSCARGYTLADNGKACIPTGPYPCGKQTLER
# Experimental: Human factor Xa was obtained from Hematologic Technologies Inc. (USA). The Xa-specific chromogenic substrate S2765 (Z-D-Arg-Gly-Arg-pNA·2HCl) was purchased from Chromogenix (USA). All other chemicals were of reagent and analytical grade.
# The kinetics of factor Xa inhibition was determined from the hydrolysis reaction of a specific substrate by the enzyme in the presence of tested substances. The chromogenic substrate S2765 (Z-D-Arg-Gly-Arg-pNA·2HCl, Chromogenix, Instrumentation Laboratory Company, Lexington, MA 02421, USA) was used for registering accumulation of p-nitroaniline as a colored product by spectrophotometer.
# Plate wells were filled with 20 mM HEPES (pH 8.0) containing 140 mM NaCl and 0.1% polyethylene glycol (molecular weight 6000 Da). Thereafter, the substrate was sequentially added to each well (final concentration, 250 μM), followed by the substance being tested (to a final concentration that was varied) and Xa (final concentration, 0.5 nM). The hydrolysis rate was monitored spectrophotometrically at 405 nm (absorption maximum of the reaction product p-nitroaniline).
# The initial rate was determined as the slope of the linear part of the kinetic curve over the first 10 to 20 min of measurement. The inhibitory effect was expressed as the percentage of reduction of the initial hydrolysis rate. The reaction rate in the absence of any inhibitor was taken as 100%. Each result is the mean of two parallel determinations. The inhibitor concentration was determined decreasing hydrolysis rate to 50% (IC50). […] Graphs of optical density against time were plotted.
# [1] = Solubility as observed during factor Xa testing; type: physicochemical; settings: limited the inhibition that could be achieved
# Excerpt: According to the results of our molecular modeling with SOL and DISCORE programs 17 compounds have been selected and investigated in the frame of in vitro experiments.
IC50 (Human factor Xa),Compound,other results
,CN1CCN(C2CC(=O)N(c3ccc(Oc4ccccc4)cc3)C2=O)CC1 (stereo not drawn) [VGY-0017263],inhibitory activity against factor Xa (in words) (Human factor Xa): did not show any inhibitory activity; Inhibition of hydrolysis rate specific to the factor Xa substrate in the buffer system IC50 (Human factor Xa): Not inhibited
6.3 µM,COc1cc2c3c(c1)-c1c(sn(-c4ccc(Oc5ccc(Cl)cc5)cc4)c1=S)C(C)(C)N3C(=O)C2=O [VGY-0018521],
10 µM,Cc1cc2nc(Nc3ncc4c(n3)CC(c3cccs3)CC4=O)nc(C)c2cc1C (stereo not drawn) [VGY-0037900],
10 µM,Clc1ccc2nc(Nc3nc(-c4ccccc4)c4ccccc4n3)nc(-c3ccccc3)c2c1 [VGY-0018863],
,CCOc1ccc(N2CN(CCCN3CCOCC3)Cn3c2nc(C)c(C)c3=O)cc1 [VGY-0160076],inhibitory activity against factor Xa (in words) (Human factor Xa): did not show any inhibitory activity; Inhibition of hydrolysis rate specific to the factor Xa substrate in the buffer system IC50 (Human factor Xa): Not inhibited
2.3 µM,"6-[(1,3-benzothiazol-2-ylthio)methyl]-2-[(5,6-dimethylquinazolin-2-yl)amino]pyrimidin-4(3H)-one [VGY-0006889]",
,Cc1nc(N2CCN(C)CC2)[nH]c(=O)c1Cc1ccc(C(C)C)cc1 [VGY-0039772],inhibitory activity against factor Xa (in words) (Human factor Xa): did not show any inhibitory activity; Inhibition of hydrolysis rate specific to the factor Xa substrate in the buffer system IC50 (Human factor Xa): Not inhibited
2 µM,"COc1cccc(NC(=O)c2nnc3c(-c4ccc(Br)cc4)c(C)nn3c2C)c1 [VGY-0101011, 8-(4-bromophenyl)-N-(3-methoxyphenyl)-4,7-dimethylpyrazolo[5,1-c][1,2,4]triazine-3-carboxamide]",
40 µM,CC1CC2(CCCC2)N2C(=O)C3(NCCc4c3[nH]c3ccccc43)c3cc(F)cc1c32 (stereo not drawn) [VGY-0041455],
19 µM,CC1(c2ccc(Cl)cc2)CC(C)(C)N(C(=O)CSc2ccc(Cl)cc2)c2ccccc21 (stereo not drawn) [VGY-0016013],
3.1 µM,"COc1ccc(C2CC(=O)c3cnc(Nc4nc(C)c5cc(C)c(C)cc5n4)nc3C2)cc1 (stereo not drawn) [VGY-0035262, 7-(4-methoxyphenyl)-2-[(4,6,7-trimethylquinazolin-2-yl)amino]-7,8-dihydroquinazolin-5(6H)-one]",
1.8 µM,"CC1=CC(C)(C)N2C(=O)C(=C3SC(=S)NC3=O)c3cc(OC(=O)C=Cc4cccc([N+](=O)[O-])c4)cc1c32 [VGY-0018989, 4,4,6-trimethyl-2-oxo-1-(4-oxo-2-thioxo-1,3-thiazolidin-5-ylidene)-1,2-dihydro-4H-pyrrolo[3,2,1-ij]quinolin-8-yl-3-(3-nitrophenyl)prop-2-enoate]",
12 µM,Cc1ccc2nc(Nc3nc(-c4cnc(N5CCCCC5)nc4C)cc(=O)[nH]3)nc(C)c2c1 [VGY-0163641],
20.6 µM,CC1(c2ccc(Cl)cc2)CC(C)(C)N2C(=O)/C(=N/c3ccc(Oc4ccccc4)cc3)c3cccc1c32 (stereo not drawn) [VGY-0027889],
,O=C1CC(c2ccco2)Cc2nc(N3CCN(Cc4ccc5c(c4)OCO5)CC3)ncc21 (stereo not drawn) [VGY-0038035],inhibition at 51 µM (Human factor Xa; at concentration of 51 μM): 34%; inhibitory activity against factor Xa (in words) (Human factor Xa): weakly inhibited; Inhibition of hydrolysis rate specific to the factor Xa substrate in the buffer system IC50 (Human factor Xa): Weakly inhibited; solubility (in words) [1]: poor solubility
5 µM,O=C1CC(c2cccc(Cl)c2)Cc2nc(N3CCN(Cc4ccc5c(c4)OCO5)CC3)ncc21 (stereo not drawn) [VGY-0037972],
,Cc1ccc(C)c(N2C(=O)CC(N3CCN(Cc4ccc5c(c4)OCO5)CC3)C2=O)c1 (stereo not drawn) [VGY-0015091],inhibitory activity against factor Xa (in words) (Human factor Xa): did not show any inhibitory activity; Inhibition of hydrolysis rate specific to the factor Xa substrate in the buffer system IC50 (Human factor Xa): Not inhibited
